Measured values from patent US8580776B2, “Compositions and methods for treating neurodegenerating diseases” (The Board of Trustees of the University of Illinois, priority 2007, dated 2013).

How the values were obtained:
Format in all cases: in vivo
[1] = tested on: NOS2; experiment: NOS2 and NeuN staining in wild type mice treated with DSP4 and injected with Aβ1-42; conditions: Aβ1-42 injected
Procedure: Genotyping was performed to confirm identity of NOS2 null and wild type littermates (FIG. 7A), and wild type mice treated with DSP4, and wild type mice treated with DSP4 and injected with oligomeric Aβ1-42 (FIG. 7B). One day later brain sections were analyzed for NOS2 (green) and NeuN (red) staining White arrows indicate neurons labeled with both antibodies.
Wild type and NOS2 null mice were treated with two i.p. injections of DSP4 as described below, and injected with oligomeric Aβ1-42 4 weeks after the second DSP4 injection. One day later brain sections were prepared from the mice, sections from wild type (FIG. 8A) and NOS2 null mice (FIG. 8B) were stained for SMI-32.
Slides were washed for 5 min. with PBS and blocked with 5% normal donkey serum in PBS at room temperature for 30 min. Primary antibodies were diluted in 1% normal donkey serum in PBS. […] Images were obtained on a Zeiss Axioplan2 fluorescence microscope equipped with an Axiocam MRm digital camera and Axiovision 4.2 imaging software.
Quantitative analysis of NOS2 positively staining cells was performed as described above. In brief, NOS2 positive containing neurons having large cell bodies were counted in 5 sections having a defined distance (0, 200 and 400 μm rostral and caudal) relative to the level of cortical injection, in brain sections from at least 3 or 4 animals per group. […]

[2] = tested on: TgAPP H6 mice; experiment: Amyloid plaque burden (Aβ1-42 staining) in brain sections of TgAPP H6 mice
From the text: Transgenic mice (H6) overexpressing the Indiana V717F mutation of human APP under control of the PDGFR promoter (Mucke et al., 2000, “High-level neuronal expression of abeta 1-42 in wild-type human amyloid protein precursor transgenic mice: synaptotoxicity without plaque formation,” J Neurosci 20:4050-8) were obtained from Dr. Lennart Mucke (J. David Gladstone Institute, San Francisco, Calif.). Male hemizygous H6 mice were bred to wild type C57BL6 (Charles River Breeding) females to obtain hemizygous progeny. Genotype was verified by PCR analysis of tail DNA using the forward primer 5′-GGTGAGTTTGTAAGTGATGCC-3′ (SEQ ID NO:1) and reverse primer 5′-TCTTCTTCTTCCACCTCAGC-3′ (SEQ ID NO:2). Animals were housed in groups of four under standard conditions with full access to food and water.
Hemizygous male H6 mice (aged 3 to 4 months) were injected with vehicle or with DSP4 (5 mg per kg; i.p., every two weeks) and all mice were sacrificed at age 9 months. This protocol (a low, chronic dose) results in 70% loss of LC noradrenergic neurons. Brains were dissected, the left hemispheres were fast frozen in isopentane at −30° C. and stored at −80° C. for subsequent protein and RNA studies. The right hemispheres were processed for immunohistochemistry.
TgAPP H6 mice were treated with DSP4 (5 mg/kg every two weeks) beginning at age 3-4 months, and brain sections analyzed at age 9 months (FIGS. 1A-1B). Hemibrains were fixed overnight in 4% paraformaldehyde in 0.1M phosphate buffer, then overnight in 10% sucrose in 0.1M phosphate buffer, and then frozen in isopentane at −30° C. Serial sections (35 um thick) were prepared on a cryostat, and stored in cryoprotective solution (0.1M phosphate buffer: ethyleneglycol: glycerol 30:40:30) at −20° C. For Aβ1-42 staining, sections were treated with formic acid (95%, 3 min), incubated overnight at 4° C. with primary antibody directed against Aβ1-42 (1:4000 dilution, Calbiochem FCA3542 rabbit polytonal antibody raised against a synthetic peptide corresponding to amino acids 706-713 of human APP), washed, then incubated with anti-rabbit biotinylated secondary antibody (Vector BA-1000, diluted 1:400) and visualized using an ABC kit (Vector). For quantification of Aβ plaques, for each animal (n=6 vehicle treated and n=6 DSP4 treated mice) 8 stained, serial sections separated by 210 μm and spanning approximately 1.5 mm between Bregma points −1.50 mm to −3.00 mm were mounted onto glass slides and imaged with a Zeiss Axiophot 2 microscope, equipped with an Axiocam B&W MRm camera. Sections were viewed at 100× using a 10× objective, and the average plaque number and % area stained (relative to the total section area of 21 mm^2) per section were determined. The threshold of brightness intensity (range black=0 to white=255) used for selection of plaques was established by determining average pixel intensity from 3 areas devoid of staining, and then adjusting that value to maximize inclusion of all visibly-stained plaques while minimizing inclusion of background areas. This value was used for all sections (all stained at the same time). For all sections, visual inspection following automated counting was done to ensure exclusion of meninges, ventricular space, or other artifacts.
Representative sections from vehicle (FIG. 1A, containing 19 plaques) and DSP4 treated (B, containing 64 plaques) mice are shown in FIG. 1. Plaque burden (number and area stained) was quantified using Axiovision 4.5 Measurement Wizard software. Sections were viewed at 100× using a 10× objective, and the average plaque number (FIG. 1C) and % area stained (FIG. 1D, relative to the total section area of 21 mm^2) per section determined (n=8 sections per animal). The data was analyzed by two-tailed t-test assuming equal variances; *, P <0.05. The relative size distribution for all plaques detected in vehicle (n=626) and DSP4 treated (n=3009) brain sections is shown (FIG. 1E). […]

[3] = tested on: EAE mice; experiment: NA depletion with DSP4 in EAE (MOG35-55 immunized mice); conditions: DSP4 50 mg/kg i.p. twice one week apart, MOG immunization 2 weeks later; versus vehicle

CCN(CCCl)Cc1ccccc1Br [DSP4, N-(2-chloroethyl)-N-ethyl-2-bromobenzylamine]
NOS2 expression in neurons [1]: increases NOS2 expression in neurons | average plaque number ([2]; DSP4 5 mg/kg every two weeks, age 9 months, vehicle 13.5±3): 62.7±18 per section | average area stained ([2]; DSP4 5 mg/kg every two weeks, age 9 months, vehicle 1,810±464): 11,100±3,000 μm^2 | plaques >5,000 μm^2 out of all plaques detected ([2]; DSP4 sections, vehicle 1/626): 16/3009 | relative plaque size distribution ([2]; age 9 months): did not significantly alter | increase in plaque number ([2]; age 9 months, versus vehicle): 5 fold | area stained as % total sectional area ([2]; age 9 months, vehicle 0.008%): 0.051% | plaque appearance in non-transgenic wild type littermates ([2]; data not shown): did not induce plaque appearance | average plaque size ([2]; n=3009 plaques, vehicle 135±18, increase not statistically significant): 174±8 μm^2 | plaques with size greater than 7,000 μm^2 ([2]; out of 3009 counted): 13 out of 3009 | plaques in representative section ([2]; representative section FIG. 1B, vehicle 19): 64 plaques | clinical signs of EAE [3]: appeared sooner and were more severe
